Measurements published in patent US20230255939A1, “Antimicrobial Agent for Non-Human Animal” (ISHIHARA SANGYO KAISHA, LTD, priority 2020, published 2023).
Converted amounts (≈) assume the structure as drawn.

Assays:
Assay type in all cases: cell-based
[1] = test system: Malassezia pachydermatis (IFM56528); assay: Antifungal activity test, fungicidal concentration after 1 minute contact (Test Examples 10-1 and 10-2); conditions: for half fungicidal concentration MFC50: M. pachydermatis IFM56528, colony formation inhibition rate of 50%; for 90% fungicidal concentration MFC90: M. pachydermatis IFM56528, colony formation inhibition rate of 90%; for MFC: Malassezia pachydermatis, 1 min, M. pachydermatis IFM56528, no colony growth, read-out: Minimum fungicidal concentration MFC100
Protocol: Test Example 10-1: Antifungal Activity Test
Test Compound: Compound No. 6
Test Microbial Strain: Malassezia Pachydermatis (IFM56528)
The Malassezia microbe (Malassezia pachydermatis) cultured for 5 to 7 days in a Sabouraud medium (1% peptone, 4% dextrin, 1.5% agar) was suspended in physiological saline, and a suspension thereof was prepared in such a way as to have an absorbance of 0.025 at 600 nm. Thereto, the test compound dissolved in DMSO was added in such a way as to provide a final concentration of 70, 65, 64, 60, 55, 45, 40, 35, 32, 20, 18, or 8 ppm, and after 1 minute, 10 µL of the suspension and 10 mL of physiological saline were placed in a syringe and stirred, and the syringe was connected to a 37 mm Quality Monitor (manufactured by Pall Corporation) followed by filtration and washing. The membrane filter was impregnated as it was with the Sabouraud medium and subjected to culturing at 32° C. for 72 hours, the presence or absence of colony growth was investigated, and the concentration at which there was no colony growth was determined as the minimum fungicidal concentration (MFC100). When there was colony growth, the number of colonies formed there (the number of colonies in the inventive plot) and the number of colonies in a solvent to which the test compound was not added (the number of colonies in the non-agent treated plot) were measured, the colony formation inhibition rate (%) was determined according to the following expression, and the concentration showing a colony formation inhibition rate of 90% was determined as the 90% fungicidal concentration (MFC90), and the concentration showing a colony formation inhibition rate of 50% was determined as half fungicidal concentration (MFC50).
Colony formation inhibition rate (%) = [(number of colonies in non-agent treated plot - number of colonies in inventive plot)/number of colonies in non-agent treated plot] × 100
Test Example 10-2: Antifungal Activity Test
Test Compound: Compound No. 1
The Malassezia microbe (Malassezia pachydermatis) cultured for 5 to 7 days in a Sabouraud medium (1% peptone, 4% dextrin, 1.5% agar) was suspended in physiological saline, and a suspension thereof was prepared in such a way as to have an absorbance of 0.025 at 600 nm. Thereto, the test compound dissolved in DMSO was added in such a way as to provide a final concentration of 500, 250, 200, 190, 180, 170, 160, 150, 140, 130, 125, 120, 110, 100, 90, 80, 70, or 64 ppm, and after 1 minute, 10 µL of the suspension and 10 mL of physiological saline were placed in a syringe and stirred, and the syringe was connected to a 37 mm Quality Monitor (manufactured by Pall Corporation) followed by filtration and washing. The membrane filter was impregnated as it was with the Sabouraud medium and subjected to culturing at 32° C. for 72 hours, the presence or absence of colony growth was investigated, and the concentration at which there was no colony growth was determined as the minimum fungicidal concentration (MFC100). When there was colony growth, the number of colonies formed there (the number of colonies in the inventive plot) and the number of colonies in a solvent to which the test compound was not added (the number of colonies in the non-agent treated plot) were measured, the colony formation inhibition rate (%) was determined according to the following expression, and the concentration showing a colony formation inhibition rate of 90% was determined as the 90% fungicidal concentration (MFC90), and the concentration showing a colony formation inhibition rate of 50% was determined as half fungicidal concentration (MFC50).

[2] = test system: M. restricta (IMF55992 strain); assay: Antimicrobial activity against microbes of genus Malassezia: colony formation inhibition (Test Example 2); conditions: 1 min, final concentration 500 ppm, 1 minute contact, read-out: Colony formation inhibition rate (%)
Protocol: (§1) The Malassezia microbe (Malassezia pachydermatis) cultured for 5 to 7 days in a Sabouraud medium (1% peptone, 4% dextrin, 1.5% agar) supplemented with 0.5% of Tween 40 (polyoxyethylene sorbitan monopalmitate: manufactured by Kanto Chemical Co., Inc.) was suspended in physiological saline and a suspension thereof was prepared in such a way as to have an absorbance of 0.25 at 550 nm. Thereto, the test compound dissolved in DMSO was added in such a way as to provide a final concentration of 500 ppm, and after 1 minute, 10 µL of the suspension and 10 mL of physiological saline were placed in a syringe and stirred, and the syringe was connected to a 37 mm Quality Monitor (manufactured by Pall Corporation) followed by filtration and washing. The membrane filter was impregnated as it was with a Sabouraud medium supplemented with 1% of Tween80 (polyoxyethylene sorbitan monooleate: manufactured by Kanto Chemical Co., Ltd.) and subjected to culturing at 32° C. for 72 hours, the number of colonies formed there (number of colonies in the inventive plot) and the number of colonies in a solvent to which the test compound was not added (the number of colonies in the non-agent treated plot) were measured, and the colony formation inhibition rate (%) was determined according to the following expression. Colony formation inhibition rate (%) = [(number of colonies in non-agent treated plot - number of colonies in inventive plot)/number of colonies in non-agent treated plot] × 100 Test compound: Compound No. 1 (final concentration of 500 ppm) Test microbial strains: Malassezia pachydermatis (IFM56528 strain), M. furfur (IMF55951 strain), M. sympodialis (IMF48588 strain), M. globosa (IMF51946 strain), and M. restricta (IMF55992 strain) The colony formation inhibition rate for each of the test strains was determined by the same method as in Test Example 1.

[3] = test system: M. sympodialis (IMF48588 strain); assay: as above; conditions: 1 min, final concentration 500 ppm, 1 minute contact, read-out: Colony formation inhibition rate (%)
Protocol: as §1

[4] = test system: M. furfur (IMF55951 strain); assay: as above; conditions: 1 min, final concentration 500 ppm, 1 minute contact, read-out: Colony formation inhibition rate (%)
Protocol: as §1

[5] = test system: M. globosa (IMF51946 strain); assay: as above; conditions: 1 min, final concentration 500 ppm, 1 minute contact, read-out: Colony formation inhibition rate (%)
Protocol: as §1

Row | Structure (SMILES) | half fungicidal concentration MFC50 [1] | 90% fungicidal concentration MFC90 [1] | MFC [1] | inhibition at 500 ppm [2] | inhibition at 500 ppm [3] | inhibition at 500 ppm [4] | inhibition at 500 ppm [5]
1 | Cc1ccc(-c2nc(C#N)[nH]c2Cl)cc1Cl [Compound No. 6, 5-chloro-4-(3-chloro-4-methylphenyl)-1H-imidazole-2-carbonitrile] | 8 ppm | 20 ppm | 40 µg/mL (≈ 159 µM) |  |  |  | 
2 | Cc1ccc(-c2nc(C#N)[nH]c2Cl)cc1 [Compound No. 1, 5-Chloro-4-(4-methylphenyl)-1H-imidazole-2-carbonitrile] | 64 ppm | 130 ppm | 160 µg/mL (≈ 735 µM) | 100% | 100% | 100% | 97%
